{"source": "patent US20230303561A1", "about": "“PYRIMIDINONE DERIVATIVE, PREPARATION METHOD THEREOF AND USE THEREOF IN RESISTING MYCOBACTERIUM TUBERCULOSIS INFECTION” (INSTITUTE OF MEDICINAL BIOTECHNOLOGY, CHINESE ACADEMY OF …, priority 2020, published 2023)"}
{"tested_on": "MTB H37Rv", "experiment": "Bacteriostasis experiment: MIC in 96-well plate, two-fold dilution method", "format": "cell-based, Mycobacterium tuberculosis", "conditions": "MTB H37Rv (ATCC 27294), 7H9 medium, 37° C., about 10 days", "units": {"Inhibitory activity against Mycobacterium tuberculosis, MIC, MTB H37Rv": "µg/mL"}}
{"smiles": "CCCSc1nc2c(c(=O)[nH]1)C(c1ccc3occc3c1)CC(=O)N2", "note": "(stereo not shown) [LSL-11-17, 2-propylmercapto-5-(benzofuran-5-yl)-5,6-dihydropyrido[2,3-d]pyrimidin-4,7(3H,8H)-dione]", "Inhibitory activity against Mycobacterium tuberculosis, MIC, MTB H37Rv": 4}
{"tested_on": "MTB H37Rv", "experiment": "Bacteriostasis experiment: MIC in 96-well plate, two-fold dilution method", "format": "cell-based, Mycobacterium tuberculosis", "conditions": "MTB H37Rv, statement on Table 1 data"}
{"smiles": "CCCOc1ccc(C2CC(=O)Nc3nc(SCCC)[nH]c(=O)c32)c(O)c1", "note": "(stereo not shown) [LSL-9-29, 2-propylmercapto-5-(2-hydroxy-4-propoxyphenyl)-5,6-dihydropyrido[2,3-d]pyrimidin-4,7(3H,8H)-dione]", "anti-mycobacterium tuberculosis MIC compared with the positive control drug INH": "equivalent to that of the positive control drug INH"}
{"smiles": "CCCSc1nc2c(c(=O)[nH]1)C(c1ccc(O)c([N+](=O)[O-])c1)CC(=O)N2", "note": "(stereo not shown) [LSL-10-04, 2-propylmercapto-5-(4-hydroxy-3-nitrophenyl)-5,6-dihydropyrido[2,3-d]pyrimidin-4,7(3H,8H)-dione]", "anti-mycobacterium tuberculosis MIC compared with the positive control drug INH": "equivalent to that of the positive control drug INH"}
{"tested_on": "MTB H37Rv", "experiment": "Bacteriostasis experiment: MIC in 96-well plate, two-fold dilution method", "format": "cell-based, Mycobacterium tuberculosis", "conditions": "Mycobacterium tuberculosis, ATCC 27294 / H37Rv, 240 h, MTB H37Rv (ATCC 27294), 7H9 medium, 37° C., about 10 days; read-out: Inhibitory activity against Mycobacterium tuberculosis, MIC, MTB H37Rv", "units": {"MIC": "µg/mL"}}
{"smiles": "COc1ccc(C2CC(=O)Nc3nc(SC)[nH]c(=O)c32)c(O)c1", "note": "(stereo not shown) [LSL-9-01, 2-methylmercapto-5-(2-hydroxy-4-methoxyphenyl)-5,6-dihydropyrido[2,3-d]pyrimidin-4,7(3H,8H)-dione]", "MIC": 8}
{"smiles": "CCCSc1nc2c(c(=O)[nH]1)C(c1ccccn1)CC(=O)N2", "note": "(stereo not shown) [LSL-11-26, 2-propylmercapto-5-(pyridin-2-yl)-5,6-dihydropyrido[2,3-d]pyrimidin-4,7(3H,8H)-dione]", "MIC": 2}
{"smiles": "CCCSc1nc2c(c(=O)[nH]1)C(c1ccc(OCC(C)C)cc1)CC(=O)N2", "note": "(stereo not shown) [LSL-11-27, 2-propylmercapto-5-(4-isobutoxyphenyl)-5,6-dihydropyrido[2,3-d]pyrimidin-4,7(3H,8H)-dione]", "MIC": 1}
{"smiles": "CCCSc1nc2c(c(=O)[nH]1)C(c1ccc(S(C)(=O)=O)cc1)CC(=O)N2", "note": "(stereo not shown) [LSL-11-20, 2-propylmercapto-5-(4-methanesulfonylphenyl)-5,6-dihydropyrido[2,3-d]pyrimidin-4,7(3H,8H)-dione]", "MIC": 1}
{"smiles": "C=CCSc1nc2c(c(=O)[nH]1)C(c1ccc(OC)c(OC)c1)CC(=O)N2", "note": "(stereo not shown) [LSL-9-17, 2-allylmercapto-5-(3,4-dimethoxyphenyl)-5,6-dihydropyrido[2,3-d]pyrimidin-4,7(3H,8H)-dione]", "MIC": 8}
{"smiles": "CCCSc1nc2c(c(=O)[nH]1)C(c1ccc(Br)cc1[N+](=O)[O-])CC(=O)N2", "note": "(stereo not shown) [LSL-11-25, 2-propylmercapto-5-(2-nitro-4-bromophenyl)-5,6-dihydropyrido[2,3-d]pyrimidin-4,7(3H,8H)-dione]", "MIC": 4}
{"smiles": "CCCSc1nc2c(c(=O)[nH]1)C(C1CCCCC1)CC(=O)N2", "note": "(stereo not shown) [LSL-11-30, 2-propylmercapto-5-cyclohexyl-5,6-dihydropyrido[2,3-d]pyrimidin-4,7(3H,8H)-dione]", "MIC": 16}
{"smiles": "CCCSc1nc2c(c(=O)[nH]1)C(c1ccccc1[N+](=O)[O-])CC(=O)N2", "note": "(stereo not shown) [LSL-10-03, 2-propylmercapto-5-(2-nitrophenyl)-5,6-dihydropyrido[2,3-d]pyrimidin-4,7(3H,8H)-dione]", "MIC": 8}
{"smiles": "COc1cc(C2CC(=O)Nc3nc(SC)[nH]c(=O)c32)cc(OC)c1OC", "note": "(stereo not shown) [LSL-7-43, 2-methylmercapto-5-(3,4,5-trimethoxyphenyl)-5,6-dihydropyrido[2,3-d]pyrimidin-4,7(3H,8H)-dione]", "MIC": "> 64"}
{"smiles": "CCCSc1nc2c(c(=O)[nH]1)C(c1cc(OC)c(OC)c(OC)c1)CC(=O)N2", "note": "(stereo not shown) [LSL-7-44, 2-propylmercapto-5-(3,4,5-trimethoxyphenyl)-5,6-dihydropyrido[2,3-d]pyrimidin-4,7(3H,8H)-dione]", "MIC": 16}
{"smiles": "CCCSc1nc2c(c(=O)[nH]1)C(c1ccc(OC(F)(F)F)cc1)CC(=O)N2", "note": "(stereo not shown) [LSL-9-35, 2-propylmercapto-5-(4-trifluoromethoxyphenyl)-5,6-dihydropyrido[2,3-d]pyrimidin-4,7(3H,8H)-dione]", "MIC": 64}
{"smiles": "CCCSc1nc2c(c(=O)[nH]1)C(c1cccnc1)CC(=O)N2", "note": "(stereo not shown) [LSL-11-28, 2-propylmercapto-5-(pyridin-3-yl)-5,6-dihydropyrido[2,3-d]pyrimidin-4,7(3H,8H)-dione]", "MIC": 2}
{"smiles": "CCCSc1nc2c(c(=O)[nH]1)C(c1ccc(Cl)c([N+](=O)[O-])c1)CC(=O)N2", "note": "(stereo not shown) [LSL-7-48, 2-propylmercapto-5-(3-nitro-4-chlorophenyl)-5,6-dihydropyrido[2,3-d]pyrimidin-4,7(3H,8H)-dione]", "MIC": 2}
{"smiles": "CCCOc1ccc(C2CC(=O)Nc3nc(SCCC)[nH]c(=O)c32)c(O)c1", "note": "(stereo not shown) [LSL-9-29, 2-propylmercapto-5-(2-hydroxy-4-propoxyphenyl)-5,6-dihydropyrido[2,3-d]pyrimidin-4,7(3H,8H)-dione]", "MIC": 0.5}
{"smiles": "CCCSc1nc2c(c(=O)[nH]1)C(c1ccc(Br)c([N+](=O)[O-])c1)CC(=O)N2", "note": "(stereo not shown) [LSL-11-22, 2-propylmercapto-5-(3-nitro-4-bromophenyl)-5,6-dihydropyrido[2,3-d]pyrimidin-4,7(3H,8H)-dione]", "MIC": 1}
{"smiles": "CCCSc1nc2c(c(=O)[nH]1)C(c1ccc(OCc3ccccc3)cc1)CC(=O)N2", "note": "(stereo not shown) [LSL-9-31, 2-propylmercapto-5-(4-benzyloxyphenyl)-5,6-dihydropyrido[2,3-d]pyrimidin-4,7(3H,8H)-dione]", "MIC": 16}
{"smiles": "CCCSc1nc2c(c(=O)[nH]1)C(c1cccc(O)c1)CC(=O)N2", "note": "(stereo not shown) [LSL-9-49, 2-propylmercapto-5-(3-hydroxyphenyl)-5,6-dihydropyrido[2,3-d]pyrimidin-4,7(3H,8H)-dione]", "MIC": 16}
{"smiles": "C=CCSc1nc2c(c(=O)[nH]1)C(c1ccc(OC)c(O)c1)CC(=O)N2", "note": "(stereo not shown) [LSL-9-15, 2-allylmercapto-5-(3-hydroxy-4-methoxyphenyl)-5,6-dihydropyrido[2,3-d]pyrimidin-4,7(3H,8H)-dione]", "MIC": 2}
{"smiles": "CCCSc1nc2c(c(=O)[nH]1)C(c1ccc(N3CCOCC3)cc1)CC(=O)N2", "note": "(stereo not shown) [LSL-10-43, 2-propylmercapto-5-(4-morpholinophenyl)-5,6-dihydropyrido[2,3-d]pyrimidin-4,7(3H,8H)-dione]", "MIC": 1}
{"smiles": "CCCSc1nc2c(c(=O)[nH]1)C(c1ccc(N)cc1)CC(=O)N2", "note": "(stereo not shown) [LSL-9-44, 2-propylmercapto-5-(4-aminophenyl)-5,6-dihydropyrido[2,3-d]pyrimidin-4,7(3H,8H)-dione]", "MIC": 16}
{"smiles": "CCCSc1nc2c(c(=O)[nH]1)C(c1ccccc1OC)CC(=O)N2", "note": "(stereo not shown) [LSL-9-48, 2-propylmercapto-5-(2-methoxyphenyl)-5,6-dihydropyrido[2,3-d]pyrimidin-4,7(3H,8H)-dione]", "MIC": 16}
{"smiles": "CCCSc1nc2c(c(=O)[nH]1)C(c1ccc3c(c1)CCO3)CC(=O)N2", "note": "(stereo not shown) [LSL-11-33, 2-propylmercapto-5-(2,3-dihydrobenzofuran-5-yl)-5,6-dihydropyrido[2,3-d]pyrimidin-4,7(3H,8H)-dione]", "MIC": 2}
{"smiles": "CCCSc1nc2c(c(=O)[nH]1)C(c1cc(O)c(O)c(O)c1)CC(=O)N2", "note": "(stereo not shown) [LSL-9-33, 2-propylmercapto-5-(3,4,5-trihydroxyphenyl)-5,6-dihydropyrido[2,3-d]pyrimidin-4,7(3H,8H)-dione]", "MIC": 64}
{"smiles": "CCCSc1nc2c(c(=O)[nH]1)C(c1ccc([N+](=O)[O-])cc1)CC(=O)N2", "note": "(stereo not shown) [LSL-7-50, 2-propylmercapto-5-(4-nitrophenyl)-5,6-dihydropyrido[2,3-d]pyrimidin-4,7(3H,8H)-dione]", "MIC": 64}
{"smiles": "CCCSc1nc2c(c(=O)[nH]1)C(c1ccc(OC)c([N+](=O)[O-])c1)CC(=O)N2", "note": "(stereo not shown) [LSL-9-40, 2-propylmercapto-5-(4-methoxy-3-nitrophenyl)-5,6-dihydropyrido[2,3-d]pyrimidin-4,7(3H,8H)-dione]", "MIC": 4}
{"smiles": "CCCSc1nc2c(c(=O)[nH]1)C(c1cccc([N+](=O)[O-])c1)CC(=O)N2", "note": "(stereo not shown) [LSL-9-10, 2-propylmercapto-5-(3-nitrophenyl)-5,6-dihydropyrido[2,3-d]pyrimidin-4,7(3H,8H)-dione]", "MIC": 4}
{"smiles": "CCCSc1nc2c(c(=O)[nH]1)C(c1ccc(O)c([N+](=O)[O-])c1)CC(=O)N2", "note": "(stereo not shown) [LSL-10-04, 2-propylmercapto-5-(4-hydroxy-3-nitrophenyl)-5,6-dihydropyrido[2,3-d]pyrimidin-4,7(3H,8H)-dione]", "MIC": 0.625}
{"smiles": "CCCSc1nc2c(c(=O)[nH]1)C(c1cccc(OC)c1)CC(=O)N2", "note": "(stereo not shown) [LSL-9-47, 2-propylmercapto-5-(3-methoxyphenyl)-5,6-dihydropyrido[2,3-d]pyrimidin-4,7(3H,8H)-dione]", "MIC": 4}
{"smiles": "CCCSc1nc2c(c(=O)[nH]1)C(c1ccncc1)CC(=O)N2", "note": "(stereo not shown) [LSL-11-29, 2-propylmercapto-5-(pyridin-4-yl)-5,6-dihydropyrido[2,3-d]pyrimidin-4,7(3H,8H)-dione]", "MIC": 8}
{"smiles": "CCCCSc1nc2c(c(=O)[nH]1)C(c1ccc(OCCC)cc1)CC(=O)N2", "note": "(stereo not shown) [LSL-10-23, 2-butylmercapto-5-(4-propoxyphenyl)-5,6-dihydropyrido[2,3-d]pyrimidin-4,7(3H,8H)-dione]", "MIC": 16}
{"smiles": "CCCSc1nc2c(c(=O)[nH]1)C(c1ccc(Br)cc1)CC(=O)N2", "note": "(stereo not shown) [LSL-9-26, 2-propylmercapto-5-(4-bromophenyl)-5,6-dihydropyrido[2,3-d]pyrimidin-4,7(3H,8H)-dione]", "MIC": 2}
{"smiles": "CCCSc1nc2c(c(=O)[nH]1)C(c1ccc(OC)c(O)c1)CC(=O)N2", "note": "(stereo not shown) [LSL-7-38, 2-propylmercapto-5-(3-hydroxy-4-methoxyphenyl)-5,6-dihydropyrido[2,3-d]pyrimidin-4,7(3H,8H)-dione]", "MIC": 1}
{"smiles": "CCCSc1nc2c(c(=O)[nH]1)C(c1ccc(OC)c(OC)c1)CC(=O)N2", "note": "(stereo not shown) [LSL-7-46, 2-propylmercapto-5-(3,4-dimethoxyphenyl)-5,6-dihydropyrido[2,3-d]pyrimidin-4,7(3H,8H)-dione]", "MIC": 8}
{"smiles": "CCCSc1nc2c(c(=O)[nH]1)C(c1ccc(C(F)(F)F)cc1)CC(=O)N2", "note": "(stereo not shown) [LSL-9-38, 2-propylmercapto-5-(4-trifluoromethylphenyl)-5,6-dihydropyrido[2,3-d]pyrimidin-4,7(3H,8H)-dione]", "MIC": 16}
{"smiles": "COc1ccc(C2CC(=O)Nc3nc(SC)[nH]c(=O)c32)cc1O", "note": "(stereo not shown) [LSL-7-39, 2-methylmercapto-5-(3-hydroxy-4-methoxyphenyl)-5,6-dihydropyrido[2,3-d]pyrimidin-4,7(3H,8H)-dione]", "MIC": 16}
{"smiles": "CCCSc1nc2c(c(=O)[nH]1)C(c1ccc3nccnc3c1)CC(=O)N2", "note": "(stereo not shown) [LSL-11-34, 2-propylmercapto-5-(quinoxalin-6-yl)-5,6-dihydropyrido[2,3-d]pyrimidin-4,7(3H,8H)-dione]", "MIC": 4}
{"smiles": "CCCSc1nc2c(c(=O)[nH]1)C(c1ccc(C(=O)O)cc1)CC(=O)N2", "note": "(stereo not shown) [LSL-11-24, 2-propylmercapto-5-(4-carboxyphenyl)-5,6-dihydropyrido[2,3-d]pyrimidin-4,7(3H,8H)-dione]", "MIC": 2}
